According to EP4714953A1, “MELANOCORTIN 2-TYPE RECEPTOR ANTAGONIST” (Scohia Pharma, Inc., priority 2023, dated 2024):

Tests used:
human MC2R = molecular target: T1, human MC2R (Homo sapiens, UniProt Q01718); test: Measurement of human MC2R inhibitory activity using intracellular cAMP concentration as an indicator; assay type: cell-based; settings: test compound at 1 µM; GeneBLAzer MC2R-CRE-bla CHO-K1 cells; ACTH (Human 1-24) final concentration 3 pM; intracellular cAMP by HTRF; read-out: MC2R inhibition rate (% of inhibition)
T1 construct: host or cells: GeneBLAzer MC2R-CRE-bla CHO-K1 cells
Method in brief: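 MC2R-CRE-bla CHO-K1 cells at 1,500/well in HBSS with 10 mM HEPES pH 7.5, 0.01% BSA and 500 µM IBMX, preincubated 20 min with compound, then stimulated with 3 pM ACTH(1-24) for 30 min at room temperature. cAMP read by HTRF; % inhibition from the ACTH-stimulated and unstimulated windows.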

[1] = tested on: ACTH-induced corticosterone secretion; test: Suppressive action of ACTH-induced corticosterone secretion in mice; assay type: in vivo; settings: 10 mg/kg, p.o.; male ICR mice; ACTH (1-24) 100 µg/kg subcutaneously 1 hr later; AUC up to 2 hr after ACTH administration
Procedure: Experimental Example 2: Suppressive action of ACTH-induced corticosterone secretion in mice
Nine-week-old male ICR mice (CHARLES RIVER LABORATORIES JAPAN, INC.) were used in the test.
The mice were assigned to each group based on body weight, with 5 mice per group. Test compounds were suspended in 0.5% (w/v) methylcellulose solution. ACTH (1-24) (A0948, LKT Laboratories, Inc.) was dissolved in saline. The test compound (10 mg/kg) or vehicle was orally administered to mice, and 1 hr later, ACTH solution (100 µg/kg) was administered subcutaneously. Blood was collected from the tail vein before ACTH administration and 0.5, 1, and 2 hr after administration, and corticosterone concentration in plasma was measured using an ELISA kit (EC3001-1, Assaypro). Using the plasma corticosterone concentration at each time point, the area under the blood concentration-time curve up to 2 hr after administration (AUC0-2h) was calculated.

T1 sequence (Q01718 whole entry): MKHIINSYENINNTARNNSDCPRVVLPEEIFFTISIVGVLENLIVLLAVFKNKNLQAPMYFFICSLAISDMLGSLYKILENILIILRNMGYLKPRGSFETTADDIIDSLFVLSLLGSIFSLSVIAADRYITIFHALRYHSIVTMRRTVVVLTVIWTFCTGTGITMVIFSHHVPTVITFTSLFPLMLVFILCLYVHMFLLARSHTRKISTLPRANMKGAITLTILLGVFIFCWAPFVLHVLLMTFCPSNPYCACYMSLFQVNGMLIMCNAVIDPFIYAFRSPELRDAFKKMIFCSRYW
T1 sequence (Q8TCY5 whole entry partner): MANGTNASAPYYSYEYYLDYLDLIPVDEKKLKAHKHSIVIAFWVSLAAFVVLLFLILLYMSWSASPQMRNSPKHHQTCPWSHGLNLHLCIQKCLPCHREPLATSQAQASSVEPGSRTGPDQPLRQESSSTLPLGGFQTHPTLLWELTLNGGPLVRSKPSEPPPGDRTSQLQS

Row | Compound | inhibition at 1 µM (human MC2R) | plasma corticosterone AUC0-2h (% of vehicle, mean±S.D.) [1]
1 | CCOc1ncccc1-c1ccc(N2C[C@H]3CN(c4ccc(Cl)cc4C(F)(F)F)C(=O)N3C[C@H]2CC)c(C(=O)NCC2(O)COC2)n1 [Example 30, 3-[(6R,8aS)-2-[4-chloro-2-(trifluoromethyl)phenyl]-6-ethyl-3-oxo-5,6,8,8a-tetrahydro-1H-imidazo[1,5-a]pyrazin-7-yl]-6-(2-ethoxypyridin-3-yl)-N-[(3-hydroxyoxetan-3-yl)methyl]pyridine-2-carboxamide] | 100% | 8.6 ± 2.4 % of vehicle
2 | CCOc1ncccc1-c1ccc(N2C[C@H]3CN(c4ccc(Cl)cc4C(F)(F)F)C(=O)N3C[C@H]2CC)c(C(=O)N[C@@H]2CCNC2)n1 [Example 31, 3-[(6R,8aS)-2-[4-chloro-2-(trifluoromethyl)phenyl]-6-ethyl-3-oxo-5,6,8,8a-tetrahydro-1H-imidazo[1,5-a]pyrazin-7-yl]-6-(2-ethoxypyridin-3-yl)-N-[(3R)-pyrrolidin-3-yl]pyridine-2-carboxamide] | 100% | 61.1 ± 7.3 % of vehicle
3 | CCOc1ncccc1-c1ccc(N2C[C@H]3CN(c4ccc(Cl)cc4C(F)(F)F)C(=O)N3C[C@H]2CC)c(C(=O)NC[C@H](C)O)n1 [Example 34, 3-[(6R,8aS)-2-[4-chloro-2-(trifluoromethyl)phenyl]-6-ethyl-3-oxo-5,6,8,8a-tetrahydro-1H-imidazo[1,5-a]pyrazin-7-yl]-6-(2-ethoxypyridin-3-yl)-N-[(2S)-2-hydroxypropyl]pyridine-2-carboxamide] | 96% | 15.6 ± 4.9 % of vehicle
4 | CCOc1ncccc1-c1ccc(N2C[C@H]3CN(c4ccc(Cl)cc4C(F)(F)F)C(=O)N3C[C@H]2CC)c(C(=O)NCC(=O)NC)n1 [Example 37, 3-[(6R,8aS)-2-[4-chloro-2-(trifluoromethyl)phenyl]-6-ethyl-3-oxo-5,6,8,8a-tetrahydro-1H-imidazo[1,5-a]pyrazin-7-yl]-6-(2-ethoxypyridin-3-yl)-N-[2-(methylamino)-2-oxoethyl]pyridine-2-carboxamide] | 100% | 14.0 ± 1.8 % of vehicle
5 | CCOc1ncccc1-c1ccc(N2C[C@H]3CN(c4ccc(Cl)cc4C(F)(F)F)C(=O)N3C[C@H]2CC)c(C(=O)N[C@H]2CNC(=O)C2)n1 [Example 38, 3-[(6R,8aS)-2-[4-chloro-2-(trifluoromethyl)phenyl]-6-ethyl-3-oxo-5,6,8,8a-tetrahydro-1H-imidazo[1,5-a]pyrazin-7-yl]-6-(2-ethoxypyridin-3-yl)-N-[(3R)-5-oxopyrrolidin-3-yl]pyridine-2-carboxamide] | 100% | 14.2 ± 4.3 % of vehicle
6 | CCOc1ncccc1-c1ccc(N2C[C@H]3CN(c4ccc(Cl)cc4C(F)(F)F)C(=O)N3C[C@H]2CC)c(C(=O)N[C@@H]2CCNC2=O)n1 [Example 47, 3-[(6R,8aS)-2-[4-chloro-2-(trifluoromethyl)phenyl]-6-ethyl-3-oxo-5,6,8,8a-tetrahydro-1H-imidazo[1,5-a]pyrazin-7-yl]-6-(2-ethoxypyridin-3-yl)-N-[(3R)-2-oxopyrrolidin-3-yl]pyridine-2-carboxamide] | 100% | 17.5 ± 4.4 % of vehicle
7 | CCOc1ncccc1-c1ccc(N2C[C@H]3CN(c4ccc(Cl)cc4C(F)(F)F)C(=O)N3C[C@H]2CC)c(C(=O)N[C@@H]2CC(=O)N(C)C2)n1 [Example 49, 3-[(6R,8aS)-2-[4-chloro-2-(trifluoromethyl)phenyl]-6-ethyl-3-oxo-5,6,8,8a-tetrahydro-1H-imidazo[1,5-a]pyrazin-7-yl]-6-(2-ethoxypyridin-3-yl)-N-[(3R)-1-methyl-5-oxopyrrolidin-3-yl]pyridine-2-carboxamide] | 100% | 7.7 ± 2.5 % of vehicle
8 | CCOc1ccccc1-c1ccc(N2C[C@H]3CN(c4ccc(Cl)cc4C(F)(F)F)C(=O)N3C[C@H]2C)c(C(=O)N[C@@H]2CC(=O)N(C)C2)n1 [Example 63, 3-[(6R,8aS)-2-[4-chloro-2-(trifluoromethyl)phenyl]-6-methyl-3-oxo-5,6,8,8a-tetrahydro-1H-imidazo[1,5-a]pyrazin-7-yl]-6-(2-ethoxyphenyl)-N-[(3R)-1-methyl-5-oxopyrrolidin-3-yl]pyridine-2-carboxamide] | 100% | 
9 | COc1ccccc1-c1ccc(N2C[C@H]3CN(c4ccc(Cl)cc4C(F)(F)F)C(=O)N3C[C@H]2C)c(C(=O)N[C@@H]2CC(=O)N(C)C2)n1 [Example 64, 3-[(6R,8aS)-2-[4-chloro-2-(trifluoromethyl)phenyl]-6-methyl-3-oxo-5,6,8,8a-tetrahydro-1H-imidazo[1,5-a]pyrazin-7-yl]-6-(2-methoxyphenyl)-N-[(3R)-1-methyl-5-oxopyrrolidin-3-yl]pyridine-2-carboxamide] | 95% | 
10 | CCOc1ncccc1-c1ccc(N2C[C@H]3CN(C4(C(F)(F)F)CCC4)C(=O)N3C[C@H]2CC)c(C(=O)N[C@@H]2CC(=O)N(C)C2)n1 [Example 65, 3-[(6R,8aS)-6-ethyl-3-oxo-2-[1-(trifluoromethyl)cyclobutyl]-5,6,8,8a-tetrahydro-1H-imidazo[1,5-a]pyrazin-7-yl]-6-(2-ethoxy-3-pyridinyl)-N-[(3R)-1-methyl-5-oxopyrrolidin-3-yl]pyridine-2-carboxamide] | 89% | 
11 | CCOc1ccccc1-c1ccc(N2C[C@H]3CN(C4(C(F)(F)F)CCC4)C(=O)N3C[C@H]2CC)c(C(=O)N[C@@H]2CC(=O)N(C)C2)n1 [Example 66, 3-[(6R,8aS)-6-ethyl-3-oxo-2-[1-(trifluoromethyl)cyclobutyl]-5,6,8,8a-tetrahydro-1H-imidazo[1,5-a]pyrazin-7-yl]-6-(2-ethoxyphenyl)-N-[(3R)-1-methyl-5-oxopyrrolidin-3-yl]pyridine-2-carboxamide] | 97% | 
12 | CCOc1ccccc1-c1ccc(N2C[C@H]3CN(c4ccc(Cl)cc4C(F)(F)F)C(=O)N3C[C@H]2CC)c(C(=O)N[C@@H]2CC(=O)N(C)C2)n1 [Example 67, 3-[(6R,8aS)-2-[4-chloro-2-(trifluoromethyl)phenyl]-6-ethyl-3-oxo-5,6,8,8a-tetrahydro-1H-imidazo[1,5-a]pyrazin-7-yl]-6-(2-ethoxyphenyl)-N-[(3R)-1-methyl-5-oxopyrrolidin-3-yl]pyridine-2-carboxamide] | 94% | 
13 | CC[C@@H]1CN2C(=O)N(c3ccc(Cl)cc3C(F)(F)F)C[C@@H]2CN1c1ccc(-c2ccccc2OC)nc1C(=O)N[C@@H]1CC(=O)N(C)C1 [Example 68, 3-[(6R,8aS)-2-[4-chloro-2-(trifluoromethyl)phenyl]-6-ethyl-3-oxo-5,6,8,8a-tetrahydro-1H-imidazo[1,5-a]pyrazin-7-yl]-6-(2-methoxyphenyl)-N-[(3R)-1-methyl-5-oxopyrrolidin-3-yl]pyridine-2-carboxamide] | 96% | 
14 | CC[C@@H]1CN2C(=O)N(c3ccc(Cl)cc3C(F)(F)F)C[C@@H]2CN1c1ccc(-c2cccnc2OC)nc1C(=O)N[C@@H]1CC(=O)N(C)C1 [Example 69, 3-[(6R,8aS)-2-[4-chloro-2-(trifluoromethyl)phenyl]-6-ethyl-3-oxo-5,6,8,8a-tetrahydro-1H-imidazo[1,5-a]pyrazin-7-yl]-6-(2-methoxy-3-pyridinyl)-N-[(3R)-1-methyl-5-oxopyrrolidin-3-yl]pyridine-2-carboxamide] | 92% | 
